Experimental data published in US7601753B2, “Pyrrolidine melanocortin-specific compounds” (Palatin Technologies, Inc., priority 2001, dated 2009).
Read-outs that look alike come from different tables or passages of the source. Non-standard residues stand in square brackets, D forms with d. Residues, ends and D or L forms follow the SMILES beside them. *: point of attachment. Hyp = O=C(O)[C@@H]1C[C@@H](O)CN1; Nle = CCCC[C@H](N)C(=O)O; NH(CH2)3NH2 = NCCCN*; Bn = c1ccc(C*)cc1

Tests used:
[1] = target: T1, MC1-R (B-16 mouse melanoma cells) (Mus musculus, UniProt Q01727); assay: Competitive inhibition binding assay, 125I-NDP-α-MSH, MC1-R; conditions: 1 μM test compound; 0.4 nM 125I-NDP-α-MSH; B-16 mouse melanoma cell membranes; mean of triplicates; results less than 0% reported as 0%
T1 construct: membranes prepared from hMC3-R, hMC4-R, hMC5-R, and B-16 mouse melanoma cells (containing MC1-R); endogenous in cells; host or cells: B-16 mouse melanoma cells (membranes)
Method: (§1) A competitive inhibition binding assay was conducted using membranes prepared from hMC3-R, hMC4-R, hMC5-R, and B-16 mouse melanoma cells (containing MC1-R) using 0.4 nM ^125I-NDP-α-MSH (New England Nuclear, Boston, Mass., USA) in 50 mM HEPES buffer containing 1 mM MgCl2, 2 mM CaCl2, and 5 mM KCl, at pH 7.2. The assay tube also contained a chosen concentration of the test compound of this invention, typically a 1 μM concentration, for determining its efficacy in inhibiting the binding of ^125I-NDP-α-MSH to its receptor.
(§2) Incubation was for 90 minutes at room temperature, after which the assay mixture was filtered and the membranes washed three times with ice cold buffer. The filter was dried and counted in a gamma counter for remaining radioactivity bound to the membranes. 100% specific binding was defined as the difference in radioactivity (cpm) bound to cell membranes in the absence and presence of 1 μM α-MSH. […] Each assay was conducted in triplicate and the actual mean values are described.

hMC3-R = target: T2, hMC3-R (Homo sapiens, UniProt P41968); assay: Competitive inhibition binding assay, 125I-NDP-α-MSH, hMC3-R; conditions: 1 μM test compound, 0.4 nM 125I-NDP-α-MSH, hMC3-R membranes, mean of triplicates, results less than 0% reported as 0%; for inhibition at 1 µM: read-out: Inhibition at 1 μM MC3-R
T2 construct: expressed in transfected cells
Method: as §1, §2

hMC4-R = target: T3, hMC4-R (Homo sapiens, UniProt P32245); assay: Competitive inhibition binding assay, 125I-NDP-α-MSH, hMC4-R; conditions: 1 μM test compound, 0.4 nM 125I-NDP-α-MSH, hMC4-R membranes, mean of triplicates, results less than 0% reported as 0%; for inhibition at 1 µM: read-out: Inhibition at 1 μM MC4-R
T3 construct: expressed in transfected cells
Method: as §1, §2

hMC5-R = target: T4, hMC5-R (Homo sapiens, UniProt P33032); assay: Competitive inhibition binding assay, 125I-NDP-α-MSH, hMC5-R; conditions: 1 μM test compound, 0.4 nM 125I-NDP-α-MSH, hMC5-R membranes, mean of triplicates, results less than 0% reported as 0%; for inhibition at 1 µM: read-out: Inhibition at 1 μM MC5-R
T4 construct: expressed in transfected cells
Method: as §1, §2

[2] = target: T1, MC1-R (B-16 mouse melanoma cells); assay: Ki determination by the method of Example 3, MC1-R; type: cell-based
[3] = target: T5, MC3-R (HEK-293 cells expressing MC3-R) (Homo sapiens, UniProt P41968); assay: Ki determination by the method of Example 3, MC3-R; type: cell-based; conditions: bound in μM
T5 construct: expressed in transfected cells; host or cells: HEK-293

[4] = target: T6, MC4-R (HEK-293 cells expressing MC4-R) (Homo sapiens, UniProt P32245); assay: Ki determination by the method of Example 3, MC4-R; type: cell-based; conditions: bound in μM
T6 construct: expressed in transfected cells; host or cells: HEK-293

[5] = target: T7, MC5-R (HEK-293 cells expressing MC5-R) (Homo sapiens, UniProt P33032); assay: Ki determination by the method of Example 3, MC5-R; type: cell-based
T7 construct: expressed in transfected cells; host or cells: HEK-293
T7 sequence (P33032 whole entry): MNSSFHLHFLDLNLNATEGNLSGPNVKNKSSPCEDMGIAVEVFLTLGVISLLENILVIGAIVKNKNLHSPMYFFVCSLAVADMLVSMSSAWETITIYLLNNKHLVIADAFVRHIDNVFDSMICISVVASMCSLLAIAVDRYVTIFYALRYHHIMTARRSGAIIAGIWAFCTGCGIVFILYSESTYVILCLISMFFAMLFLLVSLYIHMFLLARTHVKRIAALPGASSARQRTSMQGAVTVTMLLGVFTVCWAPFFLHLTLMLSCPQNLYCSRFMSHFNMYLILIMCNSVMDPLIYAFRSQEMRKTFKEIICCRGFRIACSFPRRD

T4 sequence (P33032 whole entry): as above
T1 sequence (Q01727 whole entry): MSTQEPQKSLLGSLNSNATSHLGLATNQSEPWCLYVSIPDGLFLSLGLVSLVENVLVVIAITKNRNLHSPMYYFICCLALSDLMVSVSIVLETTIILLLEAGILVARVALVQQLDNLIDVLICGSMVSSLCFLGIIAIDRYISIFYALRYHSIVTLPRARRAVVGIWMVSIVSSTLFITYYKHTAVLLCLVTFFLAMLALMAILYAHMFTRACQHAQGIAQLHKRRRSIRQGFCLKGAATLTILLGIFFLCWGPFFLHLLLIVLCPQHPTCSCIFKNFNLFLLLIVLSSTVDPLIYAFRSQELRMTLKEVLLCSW
T2 sequence (P41968 whole entry): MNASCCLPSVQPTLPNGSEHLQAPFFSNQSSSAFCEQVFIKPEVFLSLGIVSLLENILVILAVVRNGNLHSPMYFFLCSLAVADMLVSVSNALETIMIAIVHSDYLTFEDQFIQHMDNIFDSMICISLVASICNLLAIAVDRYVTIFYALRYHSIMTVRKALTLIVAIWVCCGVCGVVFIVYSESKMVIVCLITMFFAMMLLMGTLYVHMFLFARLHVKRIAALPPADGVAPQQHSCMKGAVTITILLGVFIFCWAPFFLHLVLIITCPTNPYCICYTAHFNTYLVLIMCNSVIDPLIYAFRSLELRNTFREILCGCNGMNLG
T3 sequence (P32245 whole entry): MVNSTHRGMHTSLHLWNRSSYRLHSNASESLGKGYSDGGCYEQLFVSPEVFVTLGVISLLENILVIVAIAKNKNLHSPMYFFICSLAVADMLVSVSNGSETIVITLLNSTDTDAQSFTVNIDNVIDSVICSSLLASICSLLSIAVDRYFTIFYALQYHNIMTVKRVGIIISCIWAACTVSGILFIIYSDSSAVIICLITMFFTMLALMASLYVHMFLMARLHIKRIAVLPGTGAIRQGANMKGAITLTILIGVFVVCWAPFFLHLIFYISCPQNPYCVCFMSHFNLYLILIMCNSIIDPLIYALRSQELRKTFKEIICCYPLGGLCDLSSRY
T5 sequence (P41968 whole entry): as the sequence (P41968 whole entry) above
T6 sequence (P32245 whole entry): as the sequence (P32245 whole entry) above

Row | inhibition at 1 µM [1] [%] | inhibition at 1 µM (hMC3-R) [%] | inhibition at 1 µM (hMC4-R) [%] | inhibition at 1 µM (hMC5-R) [%] | SMILES | other results
1 | 0 | 0 | 0 | 5 | [2H]N[C@@H](Cc1cnc[nH]1)C(=O)N[C@@H](Cc1ccccc1)C(=O)N1C[C@H](OCc2ccccc2)C[C@H]1C(N)=O [Example 28, His-D-Phe-Hyp(Bzl)-NH2] | –
2 | – | – | – | – | [2H]N[C@@H](Cc1cnc[nH]1)C(=O)N[C@@H](Cc1ccccc1)C(=O)N1C2CC[C@H](COc3ccc4ccccc4c3)N2C(=O)[C@@H]1CCCCN (stereo partly drawn) [Example 42] | Inhibition at 1 μM MC1-R [1]: 18%; Inhibition at 1 μM MC3-R (hMC3-R): 0%; Inhibition at 1 μM MC4-R (hMC4-R): 10%; Inhibition at 1 μM MC5-R (hMC5-R): 0%
3 | 0 | 0 | 6 | 4 | [2H]N[C@@H](Cc1cnc[nH]1)C(=O)N[C@@H](Cc1ccccc1)C(=O)N1C[C@H](OCc2ccccc2)C[C@H]1C(=O)NCCCNC(=N)N [Example 29] | –
4 | 48 | 0 | 0 | 2 | [2H]N[C@@H](Cc1cnc[nH]1)C(=O)N[C@@H](Cc1ccccc1)C(=O)N1C[C@H](OCc2ccccc2)C[C@H]1C(=O)NCCCN [Example 12] | –
5 | 34 | 0 | 6 | 14 | NCCCNC(=O)[C@@H]1C[C@@H](OCc2ccccc2)CN1C(=O)[C@@H](Cc1ccccc1)NC(=O)[C@@H]1Cc2ccccc2CN1 [Example 23] | –
6 | 91 | 13 | 8 | 25 | CCCC[C@H](NC(C)=O)C(=O)N[C@@H](C)C(=O)N[C@@H](Cc1cnc[nH]1)C(=O)N[C@H](Cc1ccccc1)C(=O)N1C[C@H](OCc2ccccc2)C[C@H]1C(=O)NCCCN [Example 9, Ac-Nle-Ala-His-D-Phe-Hyp(Bzl)-NH(CH2)3—NH2] (Ac-[Nle]AH[dF][Hyp](Bn)-{NH(CH2)3NH2}) | Ki ([2]; MC1-R, values in nM, read-out: Ki (nM) MC1-R): 10 nM; Ki [3]: > 1 µM; Ki [4]: > 1 µM; Ki ([5]; bound in μM, read-out: Ki MC5-R): > 1 µM
7 | 40 | 6 | 29 | 48 | NCCCNC(=O)[C@@H]1C[C@@H](OCc2ccccc2)CN1C(=O)[C@@H](Cc1ccc(Cl)cc1)NC(=O)[C@@H]1Cc2ccccc2CN1 [Example 21] | Ki ([5]; value in nM, read-out: Ki (nM) MC5-R): 1.15 µM
8 | – | – | – | – | [2H]N[C@@H](Cc1ccccc1)C(=O)N1C2CC[C@H](COc3ccc4ccccc4c3)N2C(=O)[C@@H]1CCCCN (stereo partly drawn) [Example 38] | Inhibition at 1 μM MC1-R [1]: 0%; Inhibition at 1 μM MC3-R (hMC3-R): 0%; Inhibition at 1 μM MC4-R (hMC4-R): 13%; Inhibition at 1 μM MC5-R (hMC5-R): 1%
9 | 29 | 10 | 27 | 38 | NCCCNC(=O)[C@@H]1C[C@@H](OCc2ccccc2)CN1C(=O)[C@@H](Cc1ccc(Cl)cc1)NC(=O)[C@H]1Cc2ccccc2CN1 [Example 22] | –
10 | 17 | 0 | 5 | 0 | NCCCNC(=O)[C@@H]1C[C@@H](OCc2ccccc2)CN1C(=O)[C@@H](Cc1ccccc1)NC(=O)[C@H]1Cc2ccccc2CN1 [Example 24] | –
11 | – | – | – | – | C[C@@H]1CN(C(=O)[C@H](N)Cc2ccc(Cl)cc2)[C@@H](CCCNC(=N)N)CN1CCc1ccc2ccccc2c1 [Example 15] | Inhibition at 1 μM MC1-R [1]: 85%; Inhibition at 1 μM MC3-R (hMC3-R): 46%; Inhibition at 1 μM MC4-R (hMC4-R): 43%; Inhibition at 1 μM MC5-R (hMC5-R): 34%
12 | 50 | 12 | 2 | 7 | [2H]N[C@@H](Cc1cnc[nH]1)C(=O)N[C@@H](Cc1ccccc1)C(=O)N1C[C@H](OCc2ccccc2)C[C@H]1C(=O)NCCCCN [Example 25] | –
13 | – | – | – | – | [2H]N[C@@H](Cc1ccccc1)C(=O)N1C2CC[C@H](COc3ccccc3)N2C(=O)[C@@H]1CCCCN (stereo partly drawn) [Example 36] | Inhibition at 1 μM MC1-R [1]: 0%; Inhibition at 1 μM MC3-R (hMC3-R): 41%; Inhibition at 1 μM MC4-R (hMC4-R): 8%; Inhibition at 1 μM MC5-R (hMC5-R): 0%
14 | – | – | – | – | CCCCCCC(=O)N[C@@H](Cc1cnc[nH]1)C(=O)N[C@H](Cc1ccccc1)C(=O)N1C[C@H](OCc2ccccc2)C[C@H]1C(=O)NCCCNC(=N)N [Example 30, Heptanoyl-His-D-Phe-Hyp(Bzl)-NH(CH2)3—NH—C(═NH)—NH2] | Inhibition at 1 μM MC1-R [1]: 92%; Inhibition at 1 μM MC3-R (hMC3-R): 7%; Inhibition at 1 μM MC4-R (hMC4-R): 1%; Inhibition at 1 μM MC5-R (hMC5-R): 1%
15 | 13 | 0 | 11 | 0 | [2H]N1CCC[C@@H]1C(=O)N[C@@H](Cc1ccccc1)C(=O)N1C[C@H](OCc2ccccc2)C[C@H]1C(=O)NCCCN [Example 44] | –
16 | 36 | 0 | 2 | 8 | [2H]N[C@@H](Cc1cnc[nH]1)C(=O)N[C@@H](Cc1ccccc1)C(=O)N1C[C@H](OCc2ccccc2)C[C@H]1C(=O)NCCCCCCN [Example 27] | –
17 | 42 | 0 | 1 | 7 | [2H]N[C@@H](Cc1cnc[nH]1)C(=O)N[C@@H](Cc1ccccc1)C(=O)N1C[C@H](OCc2ccccc2)C[C@H]1C(=O)NCCCCCN [Example 26] | –

Row | SMILES | inhibition at 1 µM [1] [%] | inhibition at 1 µM (hMC3-R) [%] | inhibition at 1 µM (hMC4-R) [%] | inhibition at 1 µM (hMC5-R) [%] | other results
18 | CCCC[C@H](N)C(=O)N[C@@H](C)C(=O)N[C@@H](Cc1cnc[nH]1)C(=O)N[C@H](Cc1ccccc1)C(=O)N1C[C@H](OCc2ccccc2)C[C@H]1C(=O)NCCCN [Example 10] (H-[Nle]AH[dF][Hyp](Bn)-{NH(CH2)3NH2}) | 83 | 6 | 2 | 7 | Ki [2]: 70 nM
